Here are results for 21 compounds from ChEMBL document CHEMBL1157522 (Bioorg Med Chem Lett, 2008).

The target of one test is Coagulation factor X (Homo sapiens, UniProt P00742). In words: Inhibition of human factor 10a.
Another test deals with Trypsin (Homo sapiens) (UniProt P07477+P07478+P35030). Briefly: Inhibition of human trypsin. The format is protein assay.
The target of test [1] is Coagulation factor IX (Homo sapiens) (UniProt P00740). Briefly: Inhibition of human factor 9a.
The target of test [2] is T1, Coagulation factor VII (Homo sapiens) (UniProt P08709).
T1 sequence (whole entry): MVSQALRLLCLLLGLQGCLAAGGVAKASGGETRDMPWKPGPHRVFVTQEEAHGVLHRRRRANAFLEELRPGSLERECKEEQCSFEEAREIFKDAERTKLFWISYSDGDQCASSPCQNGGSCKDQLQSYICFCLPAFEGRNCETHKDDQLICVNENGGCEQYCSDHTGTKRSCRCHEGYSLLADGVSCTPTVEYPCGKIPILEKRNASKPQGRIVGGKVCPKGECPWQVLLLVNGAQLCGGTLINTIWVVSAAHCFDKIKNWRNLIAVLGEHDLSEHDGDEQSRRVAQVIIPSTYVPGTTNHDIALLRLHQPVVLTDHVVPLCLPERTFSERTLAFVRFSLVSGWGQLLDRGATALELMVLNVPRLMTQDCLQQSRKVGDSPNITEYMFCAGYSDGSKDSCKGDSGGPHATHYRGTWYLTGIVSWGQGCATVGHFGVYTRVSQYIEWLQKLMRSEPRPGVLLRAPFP
Briefly: Inhibition of human factor 7a.

Test [3] concerns the target Plasminogen (Homo sapiens) (UniProt P00747). In words: Inhibition of human plasmin.
The species entered for the next test is Homo sapiens. In words: Inhibition of human chymotrypsin.
Test [4] has as its target Tissue-type plasminogen activator (Homo sapiens) (UniProt P00750). In words: Inhibition of human tPA.
The target in test [5] is Plasma kallikrein (Homo sapiens) (UniProt P03952). In words: Inhibition of human plasma kallikrein. In kind it is cell-free.
Plasma kallikrein (Homo sapiens), sequence (P03952 20-390 limits assumed): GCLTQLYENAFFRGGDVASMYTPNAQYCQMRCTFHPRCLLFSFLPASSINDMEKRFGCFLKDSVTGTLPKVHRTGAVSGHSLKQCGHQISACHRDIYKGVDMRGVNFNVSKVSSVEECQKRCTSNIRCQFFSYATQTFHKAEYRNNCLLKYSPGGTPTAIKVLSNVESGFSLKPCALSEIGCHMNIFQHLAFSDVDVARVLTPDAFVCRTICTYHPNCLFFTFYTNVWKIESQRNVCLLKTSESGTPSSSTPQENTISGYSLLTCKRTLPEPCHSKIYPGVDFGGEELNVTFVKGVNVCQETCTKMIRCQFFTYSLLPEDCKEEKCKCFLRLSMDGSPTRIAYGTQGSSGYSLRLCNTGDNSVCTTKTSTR
Plasma kallikrein (Homo sapiens), sequence (P03952 391-638 limits assumed): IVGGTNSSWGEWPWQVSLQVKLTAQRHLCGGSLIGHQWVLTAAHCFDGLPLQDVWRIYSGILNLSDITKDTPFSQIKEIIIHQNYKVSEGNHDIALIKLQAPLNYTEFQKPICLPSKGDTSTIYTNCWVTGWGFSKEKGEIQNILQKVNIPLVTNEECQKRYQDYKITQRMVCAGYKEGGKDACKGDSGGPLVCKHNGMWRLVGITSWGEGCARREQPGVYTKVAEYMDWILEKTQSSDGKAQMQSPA
Test [6] concerns the target Vitamin K-dependent protein C (Homo sapiens) (UniProt P04070). In words: Inhibition of human activated protein C.

Each structure is given as a SMILES string. Active and inactive are the calls of the source. No cut-off for these calls is given here.

Plasminogen (Homo sapiens), sequence (P00747 97-580 limits assumed): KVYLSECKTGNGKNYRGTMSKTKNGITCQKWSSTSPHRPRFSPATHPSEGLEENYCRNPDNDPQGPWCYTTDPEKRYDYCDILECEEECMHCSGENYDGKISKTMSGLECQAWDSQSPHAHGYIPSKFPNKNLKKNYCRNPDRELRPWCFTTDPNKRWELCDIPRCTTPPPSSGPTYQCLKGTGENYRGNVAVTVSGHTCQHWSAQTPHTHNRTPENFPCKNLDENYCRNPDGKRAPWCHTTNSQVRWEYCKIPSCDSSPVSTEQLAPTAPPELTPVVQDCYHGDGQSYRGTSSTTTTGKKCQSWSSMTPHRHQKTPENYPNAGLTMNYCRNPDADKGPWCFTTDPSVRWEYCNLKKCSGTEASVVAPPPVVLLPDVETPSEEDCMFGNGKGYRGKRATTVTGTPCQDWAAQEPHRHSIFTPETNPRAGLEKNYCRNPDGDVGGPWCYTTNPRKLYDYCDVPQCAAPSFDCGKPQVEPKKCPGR
Plasminogen (Homo sapiens), sequence (P00747 581-810 limits assumed): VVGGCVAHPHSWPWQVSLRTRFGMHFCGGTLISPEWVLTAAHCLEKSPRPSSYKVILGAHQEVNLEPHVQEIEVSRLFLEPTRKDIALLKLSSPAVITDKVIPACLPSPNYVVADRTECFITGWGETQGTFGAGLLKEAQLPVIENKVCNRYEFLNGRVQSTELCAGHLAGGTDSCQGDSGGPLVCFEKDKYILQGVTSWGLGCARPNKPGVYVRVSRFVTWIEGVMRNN
Coagulation factor IX (Homo sapiens), sequence (P00740 47-191 limits assumed): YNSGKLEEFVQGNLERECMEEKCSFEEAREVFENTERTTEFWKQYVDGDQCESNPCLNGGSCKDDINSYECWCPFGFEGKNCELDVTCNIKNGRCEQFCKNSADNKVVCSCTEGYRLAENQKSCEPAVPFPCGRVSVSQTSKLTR
Coagulation factor IX (Homo sapiens), sequence (P00740 227-461 limits assumed): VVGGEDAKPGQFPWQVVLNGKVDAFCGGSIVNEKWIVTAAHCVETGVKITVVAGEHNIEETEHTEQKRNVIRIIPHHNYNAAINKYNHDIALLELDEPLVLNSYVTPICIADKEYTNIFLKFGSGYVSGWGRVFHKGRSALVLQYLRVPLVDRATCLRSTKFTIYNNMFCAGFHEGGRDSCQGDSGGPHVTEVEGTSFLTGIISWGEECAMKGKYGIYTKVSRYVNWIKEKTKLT
Tissue-type plasminogen activator (Homo sapiens), sequence (P00750 36-562 limits assumed): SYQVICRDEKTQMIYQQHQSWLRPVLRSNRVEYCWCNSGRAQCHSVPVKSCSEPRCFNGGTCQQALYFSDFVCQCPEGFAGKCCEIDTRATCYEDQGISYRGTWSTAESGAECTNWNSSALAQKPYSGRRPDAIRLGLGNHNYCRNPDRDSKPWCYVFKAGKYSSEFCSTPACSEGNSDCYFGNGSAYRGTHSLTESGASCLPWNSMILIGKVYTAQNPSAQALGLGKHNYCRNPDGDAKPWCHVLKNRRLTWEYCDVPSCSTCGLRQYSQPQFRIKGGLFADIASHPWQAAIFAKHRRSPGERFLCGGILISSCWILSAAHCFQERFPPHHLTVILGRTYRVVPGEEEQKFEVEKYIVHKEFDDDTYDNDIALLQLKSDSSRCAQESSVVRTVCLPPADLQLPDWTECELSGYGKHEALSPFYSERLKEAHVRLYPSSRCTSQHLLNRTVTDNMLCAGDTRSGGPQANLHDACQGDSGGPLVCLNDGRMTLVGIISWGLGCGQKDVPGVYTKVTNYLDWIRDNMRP
Vitamin K-dependent protein C (Homo sapiens), sequence (P04070 43-197 limits assumed): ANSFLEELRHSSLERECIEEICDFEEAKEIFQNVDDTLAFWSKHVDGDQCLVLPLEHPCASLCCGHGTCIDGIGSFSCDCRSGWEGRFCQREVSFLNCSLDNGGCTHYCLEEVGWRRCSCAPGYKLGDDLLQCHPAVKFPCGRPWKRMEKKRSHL
Vitamin K-dependent protein C (Homo sapiens), sequence (P04070 212-461 limits assumed): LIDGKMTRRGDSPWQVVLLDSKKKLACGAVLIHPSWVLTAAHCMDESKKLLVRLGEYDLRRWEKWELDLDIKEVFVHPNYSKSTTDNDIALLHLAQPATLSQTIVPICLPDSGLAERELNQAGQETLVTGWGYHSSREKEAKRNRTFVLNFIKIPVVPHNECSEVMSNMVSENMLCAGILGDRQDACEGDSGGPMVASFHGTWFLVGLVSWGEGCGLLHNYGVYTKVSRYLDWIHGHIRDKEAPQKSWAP
Coagulation factor X, sequence (P00742 41-179 limits assumed): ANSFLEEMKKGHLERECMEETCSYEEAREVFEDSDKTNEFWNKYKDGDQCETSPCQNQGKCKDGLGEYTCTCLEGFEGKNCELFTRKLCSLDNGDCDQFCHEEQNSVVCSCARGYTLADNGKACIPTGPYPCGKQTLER
Coagulation factor X, sequence (P00742 235-488 limits assumed): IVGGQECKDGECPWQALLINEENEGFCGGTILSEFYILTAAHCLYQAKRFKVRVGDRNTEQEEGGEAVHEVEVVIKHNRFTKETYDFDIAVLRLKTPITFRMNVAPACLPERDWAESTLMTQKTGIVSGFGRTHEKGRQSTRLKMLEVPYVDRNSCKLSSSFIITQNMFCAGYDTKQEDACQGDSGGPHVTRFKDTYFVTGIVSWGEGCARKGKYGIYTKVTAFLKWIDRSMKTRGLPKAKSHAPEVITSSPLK

For the compound `COc1ccc(-n2nc(C(F)(F)F)c3c2C(=O)N(c2ccc(C4(C(=O)N5CCC(O)CC5)CC4)cc2)CC3)cc1`, the affinity at Coagulation factor X corresponds to a Ki of 54 nM. Further, the outcome (at Trypsin (Homo sapiens); in [1]; in test [2]; in test [3]; in the test filed under Homo sapiens; in test [4]) was inactive. Further, the result in test [5] and in test [6] was inactive.

`COc1ccc(-n2nc(C(F)(F)F)c3c2C(=O)N(c2ccc(C4(CN(C)S(C)(=O)=O)CC4)cc2)CC3)cc1` registered a Ki at Coagulation factor X of 0.074 nM. The outcome (on Trypsin (Homo sapiens); in [1]; in test [2]; in [3]; in the test filed under Homo sapiens; in test [4]) was inactive. In addition, the result in [5] and in test [6] was inactive.

For `COc1ccc(-n2nc(C(F)(F)F)c3c2C(=O)N(c2ccc(C4(C(=O)N(C)C)CC4)cc2)CC3)cc1`, the inhibitory constant (Ki) on Coagulation factor X turned out to be 5.8 nM. Besides, the outcome (at Trypsin (Homo sapiens); in test [1]; in test [2]; in test [3]; in the test filed under Homo sapiens; in test [4]) was inactive. The result in [5] and in test [6] was inactive.

The compound `COc1ccc(-n2nc(C(F)(F)F)c3c2C(=O)N(c2ccc(C4(CNc5nccs5)CC4)cc2)CC3)cc1` displayed a Ki at Coagulation factor X of 0.054 nM. In addition, the result (on Trypsin (Homo sapiens); in test [1]; in test [2]; in test [3]; in the test listed under Homo sapiens; in test [4]) was inactive. For the same compound, the outcome in [5] and in test [6] was inactive.

For the compound `CNCc1ccccc1-c1ccc(N2CCc3c(C(N)=O)nn(-c4ccc(OC)cc4)c3C2=O)cc1`, the Ki at Coagulation factor X was 0.15 nM.

As for `CNCc1ccccc1-c1ccc(N2CCc3c(C(F)(F)F)nn(-c4ccc(OC)cc4)c3C2=O)cc1`, the Ki at Coagulation factor X is 0.28 nM.

On Coagulation factor X, `COc1ccc(-n2nc(C(F)(F)F)c3c2C(=O)N(c2ccc(-c4ccccc4CNC(C)C)cc2)CC3)cc1` showed a Ki of 1.4 nM. Against the preceding compound, the Ki is about 5-fold higher.

`COc1ccc(-n2nc(C(F)(F)F)c3c2C(=O)N(c2ccc(C4(CN)CC4)cc2)CC3)cc1`: at Coagulation factor X, the affinity corresponds to a Ki of 0.57 nM. Also, the outcome (on Trypsin (Homo sapiens); in test [1]; in test [2]; in [3]; in the test filed under Homo sapiens; in [4]) was inactive. In addition, the outcome in test [5] and in [6] was inactive.

In the case of `COc1ccc(-n2nc(C(F)(F)F)c3c2C(=O)N(c2ccc(C4(C(=O)Nc5nnn[nH]5)CC4)cc2)CC3)cc1`, at Coagulation factor X, the Ki was found to be 3 nM. Further, the outcome (on Trypsin (Homo sapiens); in test [1]; in [2]; in test [3]; in the test filed under Homo sapiens; in test [4]) was inactive. Further, the result in [5] and in [6] was inactive.

Compound `COc1ccc(-n2nc(C(F)(F)F)c3c2C(=O)N(c2ccc(C4(C#N)CC4)cc2)CC3)cc1` had a Ki on Coagulation factor X of 1.8 nM. Moreover, the result (on Trypsin (Homo sapiens); in [1]; in [2]; in [3]; in the test filed under Homo sapiens; in [4]) was inactive. Besides, the outcome in [5] and in test [6] was inactive.

The compound `COc1ccc(-n2nc(C(F)(F)F)c3c2C(=O)N(c2ccc(C4(CO)CC4)cc2)CC3)cc1` registered a Ki at Coagulation factor X of 2.4 nM. In addition, the outcome (at Trypsin (Homo sapiens); in [1]; in test [2]; in [3]; in the test filed under Homo sapiens; in test [4]) was inactive. Moreover, the result in [5] and in test [6] was inactive.

Take `COc1ccc(-n2nc(C(F)(F)F)c3c2C(=O)N(c2ccc(C4(C(=O)Nc5nncs5)CC4)cc2)CC3)cc1`: the affinity on Coagulation factor X, expressed as Ki, was 1.8 nM. Besides, the result (at Trypsin (Homo sapiens); in test [1]; in test [2]; in [3]; in the test filed under Homo sapiens; in test [4]) was inactive. The outcome in test [5] and in [6] was inactive.

Take `COc1ccc(-n2nc(C(F)(F)F)c3c2C(=O)N(c2ccc(C4(CN5CC[C@@H](O)C5)CC4)cc2)CC3)cc1`: on Coagulation factor X, the Ki came out at 0.038 nM. In addition, the outcome (on Trypsin (Homo sapiens); in [1]; in test [2]; in test [3]; in the test listed under Homo sapiens; in test [4]) was inactive. Moreover, the result in [5] and in test [6] was inactive.

For `COc1ccc(-n2nc(C(F)(F)F)c3c2C(=O)N(c2ccc(C4(C(N)=O)CC4)cc2)CC3)cc1`, the inhibition constant (Ki) at Coagulation factor X is 3.3 nM. For the same compound, the result (on Trypsin (Homo sapiens); in test [1]; in [2]; in [3]; in the test listed under Homo sapiens; in test [4]) was inactive. Further, the result in test [5] and in test [6] was inactive.

Take `COC(=O)C1(c2ccc(N3CCc4c(C(F)(F)F)nn(-c5ccc(OC)cc5)c4C3=O)cc2)CC1`: the outcome (on Trypsin (Homo sapiens); in [1]; in test [2]; in [3]; in the test listed under Homo sapiens; in [4]) was inactive. Moreover, the outcome in [5] and in test [6] was inactive.

`COCC1(c2ccc(N3CCc4c(C(F)(F)F)nn(-c5ccc(OC)cc5)c4C3=O)cc2)CC1` came in with a Ki at Coagulation factor X of 1.6 nM. Further, the result (on Trypsin (Homo sapiens); in [1]; in test [2]; in test [3]; in the test listed under Homo sapiens; in [4]) was inactive. In addition, the outcome in test [5] and in test [6] was inactive.

In turn, `COc1ccc(-n2nc(C(F)(F)F)c3c2C(=O)N(c2ccc(C4(CN5CCC(O)CC5)CC4)cc2)CC3)cc1` had a Ki at Coagulation factor X of 0.14 nM. Further, the result (on Trypsin (Homo sapiens); in [1]; in test [2]; in test [3]; in the test filed under Homo sapiens; in test [4]) was inactive. The outcome in [5] and in [6] was inactive.

For the compound `COc1ccc(-n2nc(C(F)(F)F)c3c2C(=O)N(c2ccc(C4(CN5CCOCC5)CC4)cc2)CC3)cc1`, the outcome (at Trypsin (Homo sapiens); in [1]; in test [2]; in [3]; in the test filed under Homo sapiens; in test [4]) was inactive. The result in test [5] and in test [6] was inactive.

In the case of `CNCC1(c2ccc(N3CCc4c(C(F)(F)F)nn(-c5ccc(OC)cc5)c4C3=O)cc2)CC1`, the result (on Trypsin (Homo sapiens); in [1]; in [2]; in [3]; in the test filed under Homo sapiens; in test [4]) was inactive. For the same compound, the outcome in [5] and in test [6] was inactive.

As for `COc1ccc(-n2nc(C(F)(F)F)c3c2C(=O)N(c2ccc(C4(Cn5ccnc5C)CC4)cc2)CC3)cc1`, the result (at Trypsin (Homo sapiens); in [1]; in [2]; in test [3]; in the test listed under Homo sapiens; in [4]) was inactive. Further, the result in test [5] and in [6] was inactive.

Regarding `COc1ccc(-n2nc(C(F)(F)F)c3c2C(=O)N(c2ccc(-c4ccccc4CN(C)C)cc2)CC3)cc1`, the affinity at Coagulation factor X corresponds to a Ki of 0.3 nM.
